Activity calls are given as the source filed them. No cut-off for these calls is given here.
What was measured:
HEK293 = test: Cytotoxicity against HEK293 cells at 20 uM incubated for 24 hrs by MTT assay; format: toxicity, cell-based; conditions: human, hek293, 24 h
[1] = molecular target: T1, NAD-dependent protein deacetylase sirtuin-1 (Homo sapiens) (UniProt Q96EB6); test: Activation of SIRT1 deacetylation (unknown origin) transfected in HEK293 cells cotransfected with PG13-Luc/myc-tagged p53/flag-tagged Sirt1/RSV-beta-galactosidase assessed as decrease in luciferase activity at 10 uM incubated for 24 hrs by firefly luciferase assay; format: cell-based
T1 sequence (whole entry): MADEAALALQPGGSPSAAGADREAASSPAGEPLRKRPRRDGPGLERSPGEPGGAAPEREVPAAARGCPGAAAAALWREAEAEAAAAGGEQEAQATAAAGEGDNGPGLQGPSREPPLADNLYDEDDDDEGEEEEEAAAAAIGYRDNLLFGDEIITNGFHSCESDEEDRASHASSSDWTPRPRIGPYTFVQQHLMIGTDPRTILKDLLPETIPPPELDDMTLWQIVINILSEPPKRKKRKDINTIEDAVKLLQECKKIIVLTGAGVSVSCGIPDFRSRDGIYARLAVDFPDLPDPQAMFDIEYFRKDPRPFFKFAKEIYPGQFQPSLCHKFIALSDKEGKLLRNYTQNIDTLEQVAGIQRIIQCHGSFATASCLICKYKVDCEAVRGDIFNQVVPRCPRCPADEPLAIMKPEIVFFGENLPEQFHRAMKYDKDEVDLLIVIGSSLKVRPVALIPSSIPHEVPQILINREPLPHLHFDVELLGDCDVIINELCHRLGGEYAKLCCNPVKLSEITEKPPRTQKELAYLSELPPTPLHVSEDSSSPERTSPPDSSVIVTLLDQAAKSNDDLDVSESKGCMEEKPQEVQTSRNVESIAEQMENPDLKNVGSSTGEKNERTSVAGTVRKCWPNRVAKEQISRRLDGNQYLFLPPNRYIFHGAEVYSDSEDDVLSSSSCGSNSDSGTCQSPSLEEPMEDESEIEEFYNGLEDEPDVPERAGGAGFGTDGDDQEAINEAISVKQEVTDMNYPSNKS

[2] = molecular target: T1, NAD-dependent protein deacetylase sirtuin-1 (Homo sapiens); test: Activation of SIRT1 deacetylation (unknown origin) transfected in HEK293 cells cotransfected with PG13-Luc/myc-tagged p53/flag-tagged Sirt1/RSV-beta-galactosidase assessed as decrease in luciferase activity at 20 uM incubated for 24 hrs by firefly luciferase assay relative to control; format: cell-based; set-up: scale not given: the % may be the effect or the level left; conditions: filed as activator
[3] = molecular target: T1, NAD-dependent protein deacetylase sirtuin-1 (Homo sapiens); test: Activation of SIRT1 deacetylation (unknown origin) in flag tagged Sirt1 overexpressed HEK293 cells assessed as increase in NAD+/NADH ratio incubated for 12 hrs by fluorescence microplate reader analysis; format: cell-based; conditions: filed as activator, dose 10-20 µM
[4] = molecular target: T1, NAD-dependent protein deacetylase sirtuin-1 (Homo sapiens); test: Activation of SIRT1 deacetylation (unknown origin) transfected in HEK293 cells cotransfected with PG13-Luc/myc-tagged p53/flag-tagged Sirt1/RSV-beta-galactosidase assessed as decrease in luciferase activity incubated for 24 hrs by firefly luciferase assay; format: cell-based; conditions: filed as activator, dose 10-20 µM

SMILES | Activity (HEK293) | other results
O=C(C[C@H]1C(=O)Nc2ccccc21)OC[C@H]1O[C@@H](OCCc2ccc(O)c(O)c2)[C@H](O)[C@@H](O)[C@@H]1O | Non-Toxic | 
OC[C@@H](O)[C@@H](O)[C@H](O)[C@H](O)[C@@H](O)CO | Non-Toxic | 
O=C(C[C@H]1C(=O)Nc2ccccc21)OC[C@H]1O[C@@H](OCCc2ccc(O)cc2)[C@H](O)[C@@H](O)[C@@H]1O | Non-Toxic | Activity [1]: inactive; Activity [2]: 65%
O=C(C[C@@H]1C(=O)Nc2ccccc21)OC[C@H]1O[C@@H](OCCc2ccc(O)c(O)c2)[C@H](O)[C@@H](O)[C@@H]1O | Non-Toxic | 
CO[C@@]1(CC(=O)OC[C@H]2O[C@@H](OCCc3ccc(O)cc3)[C@H](O)[C@@H](O)[C@@H]2O)OC(=O)Nc2ccccc21 | Non-Toxic | 
CC1=CC[C@@H](C(C)(C)O[C@@H]2O[C@H](CO)[C@@H](O)[C@H](O)[C@H]2O)CC1 | Non-Toxic | 
O=C(C[C@@]1(O)C(=O)Nc2ccccc21)OC[C@H]1O[C@@H](OCCc2ccc(O)cc2)[C@H](O)[C@@H](O)[C@@H]1O | Non-Toxic | 
O=C(C[C@]1(O)C(=O)Nc2ccccc21)OC[C@H]1O[C@@H](OCCc2ccc(O)cc2)[C@H](O)[C@@H](O)[C@@H]1O | Non-Toxic | 
O=C(/C=C1/C(=O)Nc2ccccc21)OC[C@H]1O[C@@H](OCCc2ccc(O)cc2)[C@H](O)[C@@H](O)[C@@H]1O | Non-Toxic | 
O=C(C[C@@H]1C(=O)Nc2ccccc21)OC[C@H]1O[C@@H](OCCc2ccc(O)cc2)[C@H](O)[C@@H](O)[C@@H]1O | Non-Toxic | Activity [3]: Dose-Dependent Effect; Activity ([1]; filed as activator): Active; Activity [4]: Dose-Dependent Effect; Activity [2]: 45%
CO[C@]1(CC(=O)OC[C@H]2O[C@@H](OCCc3ccc(O)cc3)[C@H](O)[C@@H](O)[C@@H]2O)OC(=O)Nc2ccccc21 | Non-Toxic | 

Reference: ChEMBL document CHEMBL5370600, “Oxindole and Benzoxazinone Alkaloids from the Seeds of Persea americana (Avocado) and Their SIRT1 Stimulatory Activity” (J Nat Prod, 2023)
